Reference: US12291519B2, “2-hydroxycycloalkane-1-carbamoyl” (Idorsia Pharmaceuticals Ltd, priority 2019, dated 2025)

Assays:
human Gal-1 (hGal-1) = experiment: Competitive binding assay: biotinylated hGal-1 binding to microplate-adsorbed asialofetuin (ASF); conditions: Activity on hGal-1; binding of biotinylated hGal-1 to ASF-coated plates; mean values
Method: (§1) Evaluation of Compound Inhibitory Activity (IC50)
The inhibitory activity of compounds is determined in competitive binding assays. This spectrophotometric assay measures the binding of biotinylated human Gal-3 (hGal-3) or human Gal-1 (hGAl-1), respectively, to a microplate-adsorbed glycoprotein, asialofetuin (ASF) (Proc Natl Acad Sci USA. 2013 Mar. 26; 110(13):5052-7.). Alternatively, and preferably, a human Gal-1 version in which all six cysteines are substituted by serines may be used.
Briefly, compounds are serially diluted in DMSO (working dilutions). ASF-coated 384 well pates are supplemented with 22.8 μL/well of biotinylated hGal-3 or hGal-1 in assay buffer (i.e. 300-1000 ng/mL biotinylated hGal-3 or hGal-1) to which 1.2 μL of compound working dilutions are added and mixed.
(§2) Plates are incubated for 3 hours at 4° C. then washed with cold assay buffer (3×50 uL), incubated for 1 hour with 25 μL/well of a streptavidin-peroxidases solution (diluted in assay buffer to 80 ng/mL) at 4° C., followed by further washing steps with assay buffer (3×50 uL). Finally, 25 μL/well of ABTS substrate is added. OD (410 nm) is recorded after 30 to 45 min and IC50 values are calculated.
(§3) The calculated IC50 values may fluctuate depending on the daily assay performance. Fluctuations of this kind are known to those skilled in the art. IC50 values from several measurements are given as mean values.

human Gal-3 (hGal-3) = human Gal-3 (hGal-3) (Homo sapiens (Human), UniProt P17931); experiment: Competitive binding assay: biotinylated hGal-3 binding to microplate-adsorbed asialofetuin (ASF); conditions: Activity on hGal-3; binding of biotinylated hGal-3 to ASF-coated plates; mean values
Method: as §1
The inhibitory activity of compounds is determined in competitive binding assays. […] Alternatively, and preferably, a human Gal-1 version in which all six cysteines are substituted by serines may be used.
Briefly, compounds are serially diluted in DMSO (working dilutions).
as §2, with “added.” for “added. OD (410 nm) is recorded after 30 to 45 min and IC50 values are calculated.”
as §3

human Gal-1 (hGal-1), sequence (P09382 2-135 limits assumed): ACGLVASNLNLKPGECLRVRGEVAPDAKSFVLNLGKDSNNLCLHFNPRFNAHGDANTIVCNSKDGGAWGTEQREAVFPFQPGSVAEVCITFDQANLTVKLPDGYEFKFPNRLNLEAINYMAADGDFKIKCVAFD
human Gal-3 (hGal-3), sequence (P17931 whole entry): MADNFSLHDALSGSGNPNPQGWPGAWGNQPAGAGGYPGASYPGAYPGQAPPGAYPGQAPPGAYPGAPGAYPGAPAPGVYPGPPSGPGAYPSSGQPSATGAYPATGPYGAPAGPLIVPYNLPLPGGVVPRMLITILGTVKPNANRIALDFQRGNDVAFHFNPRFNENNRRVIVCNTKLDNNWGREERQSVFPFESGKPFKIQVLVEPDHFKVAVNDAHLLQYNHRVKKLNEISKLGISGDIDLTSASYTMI

Structure (SMILES)	IC50 (human Gal-1 (hGal-1)) [nM]	IC50 (human Gal-3 (hGal-3)) [nM]
O=C([C@@H]1O[C@H](CO)[C@H](O)[C@H](n2cc(-c3cc(F)c(F)c(F)c3)nn2)[C@H]1O)N(Cc1ccccc1)[C@H]1CCCC[C@@H]1O [Example 1, (2R,3R,4S,5R,6R)-N-benzyl-3,5-dihydroxy-N-((1S,2S)-2-hydroxycyclohexyl)-6-(hydroxymethyl)-4-(4-(3,4,5-trifluorophenyl)-1H-1,2,3-triazol-1-yl)tetrahydro-2H-pyran-2-carboxamide]	6500	154
O=C([C@@H]1O[C@H](CO)[C@H](O)[C@H](n2cc(-c3cc(F)c(F)c(F)c3)nn2)[C@H]1O)N(Cc1cccc(Cl)c1)[C@H]1CCCC[C@@H]1O [Example 2, (2R,3R,4S,5R,6R)-N-(3-chlorobenzyl)-3,5-dihydroxy-N-((1S,2S)-2-hydroxycyclohexyl)-6-(hydroxymethyl)-4-(4-(3,4,5-trifluorophenyl)-1H-1,2,3-triazol-1-yl)tetrahydro-2H-pyran-2-carboxamide]	22800	301
C#Cc1cccc(CN(C(=O)[C@@H]2O[C@H](CO)[C@H](O)[C@H](n3cc(-c4cc(F)c(F)c(F)c4)nn3)[C@H]2O)[C@H]2CCCC[C@@H]2O)c1 [Example 3, (2R,3R,4S,5R,6R)-N-(3-ethynylbenzyl)-3,5-dihydroxy-N-((1S,2S)-2-hydroxycyclohexyl)-6-(hydroxymethyl)-4-(4-(3,4,5-trifluorophenyl)-1H-1,2,3-triazol-1-yl)tetrahydro-2H-pyran-2-carboxamide]	> 100000	471
O=C([C@@H]1O[C@H](CO)[C@H](O)[C@H](n2cc(-c3cc(F)c(F)c(F)c3)nn2)[C@H]1O)N(CCc1ccccc1)[C@H]1CCCC[C@@H]1O [Example 4, (2R,3R,4S,5R,6R)-3,5-dihydroxy-N-((1S,2S)-2-hydroxycyclohexyl)-6-(hydroxymethyl)-N-phenethyl-4-(4-(3,4,5-trifluorophenyl)-1H-1,2,3-triazol-1-yl)tetrahydro-2H-pyran-2-carboxamide]	> 100000	677
O=C([C@@H]1O[C@H](CO)[C@H](O)[C@H](n2cc(-c3cc(F)c(F)c(F)c3)nn2)[C@H]1O)N(Cc1ccc(Cl)cc1)[C@H]1CCCC[C@@H]1O [Example 5, (2R,3R,4S,5R,6R)-N-(4-chlorobenzyl)-3,5-dihydroxy-N-((1S,2S)-2-hydroxycyclohexyl)-6-(hydroxymethyl)-4-(4-(3,4,5-trifluorophenyl)-1H-1,2,3-triazol-1-yl)tetrahydro-2H-pyran-2-carboxamide]	18200	174
O=C([C@@H]1O[C@H](CO)[C@H](O)[C@H](n2cc(-c3cc(F)c(F)c(F)c3)nn2)[C@H]1O)N(Cc1ccccc1Cl)[C@H]1CCCC[C@@H]1O [Example 6, (2R,3R,4S,5R,6R)-N-(2-chlorobenzyl)-3,5-dihydroxy-N-((1S,2S)-2-hydroxycyclohexyl)-6-(hydroxymethyl)-4-(4-(3,4,5-trifluorophenyl)-1H-1,2,3-triazol-1-yl)tetrahydro-2H-pyran-2-carboxamide]	1920	71
O=C([C@@H]1O[C@H](CO)[C@H](O)[C@H](n2cc(-c3cc(F)c(F)c(F)c3)nn2)[C@H]1O)N(Cc1ccccc1C(F)(F)F)[C@H]1CCCC[C@@H]1O [Example 7, (2R,3R,4S,5R,6R)-3,5-dihydroxy-N-((1S,2S)-2-hydroxycyclohexyl)-6-(hydroxymethyl)-N-(2-(trifluoromethyl)benzyl)-4-(4-(3,4,5-trifluorophenyl)-1H-1,2,3-triazol-1-yl)tetrahydro-2H-pyran-2-carboxamide]	1240	57
O=C([C@@H]1O[C@H](CO)[C@H](O)[C@H](n2cc(-c3cc(F)c(F)c(F)c3)nn2)[C@H]1O)N(Cc1ccncc1Cl)[C@H]1CCCC[C@@H]1O [Example 8, (2R,3R,4S,5R,6R)-N-((3-chloropyridin-4-yl)methyl)-3,5-dihydroxy-N-((1S,2S)-2-hydroxycyclohexyl)-6-(hydroxymethyl)-4-(4-(3,4,5-trifluorophenyl)-1H-1,2,3-triazol-1-yl)tetrahydro-2H-pyran-2-carboxamide]	2490	169
O=C([C@@H]1O[C@H](CO)[C@H](O)[C@H](n2cc(-c3cc(F)c(F)c(F)c3)nn2)[C@H]1O)N(Cc1cccnc1C(F)(F)F)[C@H]1CCCC[C@@H]1O [Example 9, (2R,3R,4S,5R,6R)-3,5-dihydroxy-N-((1S,2S)-2-hydroxycyclohexyl)-6-(hydroxymethyl)-N-((2-(trifluoromethyl)pyridin-3-yl)methyl)-4-(4-(3,4,5-trifluorophenyl)-1H-1,2,3-triazol-1-yl)tetrahydro-2H-pyran-2-carboxamide]	1640	147
O=C([C@@H]1O[C@H](CO)[C@H](O)[C@H](n2cc(-c3cc(F)c(F)c(F)c3)nn2)[C@H]1O)N(Cc1cnccc1C(F)(F)F)[C@H]1CCCC[C@@H]1O [Example 10, (2R,3R,4S,5R,6R)-3,5-dihydroxy-N-((1S,2S)-2-hydroxycyclohexyl)-6-(hydroxymethyl)-N-((4-(trifluoromethyl)pyridin-3-yl)methyl)-4-(4-(3,4,5-trifluorophenyl)-1H-1,2,3-triazol-1-yl)tetrahydro-2H-pyran-2-carboxamide]	1690	122
CO[C@@H]1[C@@H](n2cc(-c3cc(F)c(F)c(F)c3)nn2)[C@@H](O)[C@@H](CO)O[C@H]1C(=O)N(Cc1ccccc1C(F)(F)F)[C@H]1CCCC[C@@H]1O [Example 11, (2R,3R,4S,5R,6R)-5-hydroxy-N-((1S,2S)-2-hydroxycyclohexyl)-6-(hydroxymethyl)-3-methoxy-N-(2-(trifluoromethyl)benzyl)-4-(4-(3,4,5-trifluorophenyl)-1H-1,2,3-triazol-1-yl)tetrahydro-2H-pyran-2-carboxamide]	497	55
CO[C@@H]1[C@@H](n2cc(-c3cc(F)c(F)c(F)c3)nn2)[C@@H](O)[C@@H](CO)O[C@H]1C(=O)N(Cc1ccccc1Cl)[C@H]1CCCC[C@@H]1O [Example 12, (2R,3R,4S,5R,6R)-N-(2-chlorobenzyl)-5-hydroxy-N-((1S,2S)-2-hydroxycyclohexyl)-6-(hydroxymethyl)-3-methoxy-4-(4-(3,4,5-trifluorophenyl)-1H-1,2,3-triazol-1-yl)tetrahydro-2H-pyran-2-carboxamide]	497	52
O=C([C@@H]1O[C@H](CO)[C@H](O)[C@H](n2cc(-c3cc(F)c(F)c(F)c3)nn2)[C@H]1O)N(Cc1ncccc1C(F)(F)F)[C@H]1CCCC[C@@H]1O [Example 13, (2R,3R,4S,5R,6R)-3,5-dihydroxy-N-((1S,2S)-2-hydroxycyclohexyl)-6-(hydroxymethyl)-N-((3-(trifluoromethyl)pyridin-2-yl)methyl)-4-(4-(3,4,5-trifluorophenyl)-1H-1,2,3-triazol-1-yl)tetrahydro-2H-pyran-2-carboxamide]	7250	255
Nc1nc(Cl)c(CN(C(=O)[C@@H]2O[C@H](CO)[C@H](O)[C@H](n3cc(-c4cc(F)c(F)c(F)c4)nn3)[C@H]2O)[C@H]2CCCC[C@@H]2O)s1 [Example 15, (2R,3R,4S,5R,6R)-N-((2-amino-4-chlorothiazol-5-yl)methyl)-3,5-dihydroxy-N-((1S,2S)-2-hydroxycyclohexyl)-6-(hydroxymethyl)-4-(4-(3,4,5-trifluorophenyl)-1H-1,2,3-triazol-1-yl)tetrahydro-2H-pyran-2-carboxamide]	3180	419
O=C([C@@H]1O[C@H](CO)[C@H](O)[C@H](n2cc(-c3cc(F)c(F)c(F)c3)nn2)[C@H]1O)N(Cc1cnoc1)[C@H]1CCCC[C@@H]1O [Example 16, (2R,3R,4S,5R,6R)-3,5-dihydroxy-N-((1S,2S)-2-hydroxycyclohexyl)-6-(hydroxymethyl)-N-(isoxazol-4-ylmethyl)-4-(4-(3,4,5-trifluorophenyl)-1H-1,2,3-triazol-1-yl)tetrahydro-2H-pyran-2-carboxamide]	28300	476
O=C([C@@H]1O[C@H](CO)[C@H](O)[C@H](n2cc(-c3cc(F)c(F)c(F)c3)nn2)[C@H]1O)N(Cc1ccc(Cl)o1)[C@H]1CCCC[C@@H]1O [Example 17, (2R,3R,4S,5R,6R)-N-((5-chlorofuran-2-yl)methyl)-3,5-dihydroxy-N-((1S,2S)-2-hydroxycyclohexyl)-6-(hydroxymethyl)-4-(4-(3,4,5-trifluorophenyl)-1H-1,2,3-triazol-1-yl)tetrahydro-2H-pyran-2-carboxamide]	23100	281
